Values after ≈ are worked out from the molar mass of the structure shown.
Legend:
Plasmodium falciparum [1] = test: Antimalarial activity against chloroquine-sensitive and mefloquine-resistant Plasmodium falciparum D6 by SYBR Green I-based fluorescence assay; format: functional
Plasmodium falciparum [2] = test: Antimalarial activity against chloroquine, mefloquine and pyrimethamine-resistant Plasmodium falciparum TM91C235 by SYBR Green I-based fluorescence assay; format: functional
[3] = Apparent permeability from apical to basolateral side of dog MDCK cells at 5 uM after 2 hrs by LC/MS/MS analysis; format: ADME, cell-based, Canis lupus familiaris

SMILES	IC90 (Plasmodium falciparum [1])	IC90 (Plasmodium falciparum [2])	Papp A→B at 2 h, 5 µM [3]
Cc1ccc(S(=O)(=O)N(CCN2CCCCC2)CC(O)c2cc(C(F)(F)F)nc3c(C(F)(F)F)cccc23)cc1 (configuration not stated)	0.071 µg/mL (≈ 0.12 µM)	0.214 µg/mL (≈ 0.363 µM)	2.5 ×10⁻⁶ cm/s
OC(CNCCN1CC2CCC1C2)c1cc(C(F)(F)F)nc2c(C(F)(F)F)cccc12 (configuration not stated)	0.844 µg/mL (≈ 1.89 µM)	0.972 µg/mL (≈ 2.17 µM)	14.2 ×10⁻⁶ cm/s
CC(CN1CC2CCC1C2)NCC(O)c1cc(C(F)(F)F)nc2c(C(F)(F)F)cccc12 (configuration not stated)	0.029 µg/mL (≈ 0.0628 µM)	0.051 µg/mL (≈ 0.111 µM)	18.8 ×10⁻⁶ cm/s
CC(C)(CN1CC2CCC1C2)NCC(O)c1cc(C(F)(F)F)nc2c(C(F)(F)F)cccc12 (configuration not stated)	0.093 µg/mL (≈ 0.196 µM)	0.16 µg/mL (≈ 0.337 µM)	25.1 ×10⁻⁶ cm/s
CN(CCN(C)CC(O)c1cc(C(F)(F)F)nc2c(C(F)(F)F)cccc12)CC(O)c1cc(C(F)(F)F)nc2c(C(F)(F)F)cccc12 (configuration not stated)	0.329 µg/mL (≈ 0.468 µM)	0.375 µg/mL (≈ 0.534 µM)	–
CNCCN(CC(O)c1cc(C(F)(F)F)nc2c(C(F)(F)F)cccc12)CC(O)c1cc(C(F)(F)F)nc2c(C(F)(F)F)cccc12 (configuration not stated)	0.022 µg/mL (≈ 0.032 µM)	0.03 µg/mL (≈ 0.0436 µM)	0.3 ×10⁻⁶ cm/s
CN(C)CCN(CC(O)c1cc(C(F)(F)F)nc2c(C(F)(F)F)cccc12)CC(O)c1cc(C(F)(F)F)nc2c(C(F)(F)F)cccc12 (configuration not stated)	> 0.5 µg/mL	> 0.5 µg/mL	–
CN(CCN)CC(O)c1cc(C(F)(F)F)nc2c(C(F)(F)F)cccc12 (configuration not stated)	0.344 µg/mL (≈ 0.902 µM)	0.695 µg/mL (≈ 1.82 µM)	4.9 ×10⁻⁶ cm/s
CNCCN(C)CC(O)c1cc(C(F)(F)F)nc2c(C(F)(F)F)cccc12 (configuration not stated)	0.432 µg/mL (≈ 1.09 µM)	0.755 µg/mL (≈ 1.91 µM)	5.66 ×10⁻⁶ cm/s
NCCN(Cc1ccccc1)CC(O)c1cc(C(F)(F)F)nc2c(C(F)(F)F)cccc12 (configuration not stated)	0.329 µg/mL (≈ 0.719 µM)	0.289 µg/mL (≈ 0.632 µM)	9.06 ×10⁻⁶ cm/s
CC(C)N(CCN)CC(O)c1cc(C(F)(F)F)nc2c(C(F)(F)F)cccc12 (configuration not stated)	0.439 µg/mL (≈ 1.07 µM)	0.627 µg/mL (≈ 1.53 µM)	–
CC(CNC(C)(C)C)NCC(O)c1cc(C(F)(F)F)nc2c(C(F)(F)F)cccc12 (configuration not stated)	0.015 µg/mL (≈ 0.0343 µM)	0.041 µg/mL (≈ 0.0937 µM)	13.1 ×10⁻⁶ cm/s
CC(CNC1CCCCC1)NCC(O)c1cc(C(F)(F)F)nc2c(C(F)(F)F)cccc12 (configuration not stated)	0.026 µg/mL (≈ 0.0561 µM)	0.082 µg/mL (≈ 0.177 µM)	9.6 ×10⁻⁶ cm/s
CC(CNC1CCC1)NCC(O)c1cc(C(F)(F)F)nc2c(C(F)(F)F)cccc12 (configuration not stated)	0.0014 µg/mL (≈ 0.00322 µM)	0.0093 µg/mL (≈ 0.0214 µM)	10.4 ×10⁻⁶ cm/s
CC(CNC1CCCC1)NCC(O)c1cc(C(F)(F)F)nc2c(C(F)(F)F)cccc12 (configuration not stated)	0.03 µg/mL (≈ 0.0667 µM)	0.124 µg/mL (≈ 0.276 µM)	11.1 ×10⁻⁶ cm/s
OC(CNCCNc1ccccc1)c1cc(C(F)(F)F)nc2c(C(F)(F)F)cccc12 (configuration not stated)	0.028 µg/mL (≈ 0.0631 µM)	0.07 µg/mL (≈ 0.158 µM)	13 ×10⁻⁶ cm/s
NCCNCC(O)c1cc(C(F)(F)F)nc2c(C(F)(F)F)cccc12 (configuration not stated)	0.988 µg/mL (≈ 2.69 µM)	1.14 µg/mL (≈ 3.11 µM)	3.1 ×10⁻⁶ cm/s
OC(CNCCN(C1CCCCC1)C1CCCCC1)c1cc(C(F)(F)F)nc2c(C(F)(F)F)cccc12 (configuration not stated)	0.0093 µg/mL (≈ 0.0175 µM)	0.022 µg/mL (≈ 0.0414 µM)	24.7 ×10⁻⁶ cm/s
CC(C)NCCNCC(O)c1cc(C(F)(F)F)nc2c(C(F)(F)F)cccc12 (configuration not stated)	0.012 µg/mL (≈ 0.0293 µM)	0.032 µg/mL (≈ 0.0782 µM)	12.7 ×10⁻⁶ cm/s
OC(CNCCNC1CC1)c1cc(C(F)(F)F)nc2c(C(F)(F)F)cccc12 (configuration not stated)	0.041 µg/mL (≈ 0.101 µM)	0.128 µg/mL (≈ 0.314 µM)	2.8 ×10⁻⁶ cm/s
CC(C)(C)NCCNCC(O)c1cc(C(F)(F)F)nc2c(C(F)(F)F)cccc12 (configuration not stated)	0.243 µg/mL (≈ 0.574 µM)	0.504 µg/mL (≈ 1.19 µM)	11.2 ×10⁻⁶ cm/s
OC(CNCCNC1CCCC1)c1cc(C(F)(F)F)nc2c(C(F)(F)F)cccc12 (configuration not stated)	0.11 µg/mL (≈ 0.253 µM)	0.198 µg/mL (≈ 0.455 µM)	3 ×10⁻⁶ cm/s
OC(CNCCNC1CCCCC1)c1cc(C(F)(F)F)nc2c(C(F)(F)F)cccc12 (configuration not stated)	0.122 µg/mL (≈ 0.271 µM)	0.142 µg/mL (≈ 0.316 µM)	2.7 ×10⁻⁶ cm/s
CC(C)N(C)CCNCC(O)c1cc(C(F)(F)F)nc2c(C(F)(F)F)cccc12 (configuration not stated)	0.044 µg/mL (≈ 0.104 µM)	0.079 µg/mL (≈ 0.187 µM)	9.03 ×10⁻⁶ cm/s
OC(CNCCNC1CCC1)c1cc(C(F)(F)F)nc2c(C(F)(F)F)cccc12 (configuration not stated)	0.081 µg/mL (≈ 0.192 µM)	0.138 µg/mL (≈ 0.327 µM)	8.54 ×10⁻⁶ cm/s

Reference: ChEMBL document CHEMBL1821574, “Structure-activity relationships of 4-position diamine quinoline methanols as intermittent preventative treatment (IPT) against Plasmodium falciparum” (J Med Chem, 2011)
